In paper PMC10056008 (Pharmaceuticals, 2023):
Read-outs that look alike come from different tables or passages of the source.

Experiments:
coagulation = test: Coagulation assay (aPTT, PT, dPT, TT, fibrinogen) in plasma of dosed subjects; type: in vivo, human; conditions: mean (SD)
Experimental: An open-label, two-period, single sequence clinical study was conducted. After an overnight fast and drinking 200 mL of water one hour before drug administration, eligible subjects were administered with a capsule of dabigatran etexilate 150 mg ([…]®) on the first day of the study. Blood samples for pharmacokinetic and pharmacodynamic analyses were obtained using EDTA tubes and citrate tubes, respectively. […] Subjects remained at fasting stage until 4 h after the administration. […] To ensure compliance, subjects visited the study site for every drug administration. […] Blood samples were obtained at the same time point scheduled as the first day of the study. Adverse events were collected during the entire study period. This study was conducted in accordance with the Declaration of Helsinki, good clinical practice, and local regulation. The study was approved by the Institutional Review Board at Korea University Guro Hospital (2018GR0336, date of approval: 11 October 2018) and registered at ClinicalTrials.gov (NCT03728101). Anticoagulant assays of aPTT, PT, dPT, TT, and fibrinogen were measured using STA® Compact Max (Stago, Asnieres, France) according to the manufacturer's instructions. […] To measure aPTT, 50 μL of plasma sample was placed in a cuvette in the presence of STA®-PTT (50 μL) and 50 μL of 0.025 M CaCl2. For fibrinogen, 7.5 μL of plasma which was automatically diluted with Owren-Koller buffer was placed into a cuvette and then 50 μL of […] was added. For pharmacodynamic assessment, Phoenix Winnonlin® version 8.3 (Pharsight, Mountain View, CA, USA) was used to calculate AUEC with the linear trapezoidal method and Rmax was directly determined from individual profiles.

[1] = cited from earlier work
thrombin generation = test: Thrombin generation assay (TGA) in plasma of dosed subjects; type: in vivo, human; conditions: mean (SD)
Experimental: An open-label, two-period, single sequence clinical study was conducted. After an overnight fast and drinking 200 mL of water one hour before drug administration, eligible subjects were administered with a capsule of dabigatran etexilate 150 mg ([…]®) on the first day of the study. Blood samples for pharmacokinetic and pharmacodynamic analyses were obtained using EDTA tubes and citrate tubes, respectively. […] Subjects remained at fasting stage until 4 h after the administration. […] To ensure compliance, subjects visited the study site for every drug administration. […] Blood samples were obtained at the same time point scheduled as the first day of the study. Adverse events were collected during the entire study period. This study was conducted in accordance with the Declaration of Helsinki, good clinical practice, and local regulation. […] TGA was performed using a Technothrombin® TGA kit (Technoclone, Vienna, Austria) on a fully automated, computer-controlled microplate reader (Flexstation 3; Molecular Devices, San Jose, CA, USA) with a 360 nm excitation wavelength and 460 nm emission wavelength. In brief, 30 μL of plasma samples were mixed with 25 μL of 400 μmol/L fluorogenic substrate ([…]; Bachem, Bubendorf, Switzerland). The assay was initiated by dispensing 10 μL of 5 pmol/L recombinant human tissue factor lipidated with synthetic phospholipids and 10 μL of 15 mmol/L CaCl2. TGA results are expressed as Cmax, AUC, Tmax, and lag time. For pharmacodynamic assessment, Phoenix Winnonlin® version 8.3 (Pharsight, Mountain View, CA, USA) was used to calculate AUEC with the linear trapezoidal method and Rmax was directly determined from individual profiles.

[2] = Pharmacokinetics of dabigatran etexilate, dabigatran and dabigatran acylglucuronide in plasma after 150 mg dabigatran etexilate with or without simvastatin; type: in vivo, human
Experimental: An open-label, two-period, single sequence clinical study was conducted. After an overnight fast and drinking 200 mL of water one hour before drug administration, eligible subjects were administered with a capsule of dabigatran etexilate 150 mg ([…]®) on the first day of the study. Blood samples for pharmacokinetic and pharmacodynamic analyses were obtained using EDTA tubes and citrate tubes, respectively. […] Subjects remained at fasting stage until 4 h after the administration. […] To ensure compliance, subjects visited the study site for every drug administration. […] Blood samples were obtained at the same time point scheduled as the first day of the study. Adverse events were collected during the entire study period. This study was conducted in accordance with the Declaration of Helsinki, good clinical practice, and local regulation. The study was approved by the Institutional Review Board at Korea University Guro Hospital (2018GR0336, date of approval: 11 October 2018) and registered at ClinicalTrials.gov (NCT03728101). Separate plasma samples were kept frozen below -70 °C until analysis. Plasma concentrations of dabigatran etexilate, dabigatran, and dabigatran acylglucuronide were quantified using a high-performance liquid chromatography (Nanospace series SI-2, Shiseido Co., Ltd., Tokyo, Japan) coupled with tandem mass spectrometry (API4000, AB SCIEX LLC, Framingham, MA, USA) method. The method was validated in terms of selectivity, linearity, precision, accuracy, recovery, matrix effect, and stability prior to the analysis. In brief, 100 μL of plasma samples were deproteinized using 400 μL of acetonitrile and centrifuged at 13,000× g for 20 min. Dabigatran-d3 was used as an internal standard. The supernatants were evaporated and then dissolved in a 300 μL mobile phase consisting of acetonitrile and 10 mM ammonium formate (215:85, v/v). These samples were injected onto an Atlantis HILIC SilicaTM column (2.1 mm × 150 mm, 3 μm, Waters, Milford, MA, USA) at a flow rate of 0.3 mL/min. The mass spectrometer equipped with an electrospray ionization source was operated in a positive ion mode. Selected ion pairs of m/z 629.464→290.100 for dabigatran etexilate, m/z 472.300→289.100 for dabigatran, m/z 648.382→289.100 for dabigatran acylglucuronide were detected. […] Pharmacokinetic parameters of dabigatran etexilate, dabigatran, and dabigatran acylglucuronide were derived from noncompartmental analysis using Phoenix Winnonlin® version 8.3 (Certara, Princeton, NJ, USA). Observed values from individual time-concentration profiles were used for Cmax and Tmax. Area under the time-concentration curve (AUC) was calculated using linear-up log-down trapezoidal rule. The AUC from 0 h to infinity (AUCinf) was calculated as follows: AUCinf = AUC + Ct/ke, where Ct was the last plasma concentration and ke was the elimination rate constant. […] Mean residence time (MRT) was calculated as area under the moment curve from time of dosing to the last measurable concentration divided by AUClast. All statistical analyses were performed using SAS® version 9.4 (SAS Institute Inc., Cary, NC, USA). Descriptive statistics were used to summarize demographic, pharmacokinetic, and pharmacodynamic data. A linear mixed effects model was used to compare Cmax, AUClast, and AUCinf between two treatment periods.

[3] = co-administered with simvastatin vs alone
[4] = human, oral, 150 mg dabigatran etexilate alone, plasma, mean (SD)

Question: Which “Fibrinogen AUEC” value (coagulation; dabigatran alone) does the source give for `[H]/N=C(/N)c1ccc(NCc2nc3cc(C(=O)N(CCC(=O)O)c4ccccn4)ccc3n2C)cc1` [Dabigatran] here?
Answer: Its value is 6249.8 (1133.1) h∙mg/dL.

Question: What about the “Fibrinogen Rmax” value (coagulation; dabigatran alone) of the same molecule?
Answer: The value was 288.0 (55.9) mg/dL.

Question: And the “PT (INR) AUEC” value (coagulation; dabigatran alone)?
Answer: Its value is 26.9 (1.4).

Question: What about the “PT (INR) Rmax” value (coagulation; dabigatran alone) of the same molecule?
Answer: The value was 1.3 (0.1).

Question: And the “PT (sec) AUEC” value (coagulation; dabigatran alone)?
Answer: The value was 344.9 (14.3) s∙h.

Question: What about the “PT (sec) Rmax” value (coagulation; dabigatran alone) of the same molecule?
Answer: Its value is 16.6 (1.4) s.

Question: What about the “TT AUEC” value (coagulation; dabigatran alone) of the same molecule?
Answer: The value was 1690.1 (535.9) s∙h.

Question: What about the “TT Rmax” value (coagulation; dabigatran alone) of the same molecule?
Answer: Its value is 169.2 (74.0) s.

Question: And the “aPTT AUEC” value (coagulation; dabigatran alone)?
Answer: The value was 1203.1 (153.1) s∙h.

Question: And the “aPTT Rmax” value (coagulation; dabigatran alone)?
Answer: Its value is 69.5 (13.8) s.

Question: What about the “dPT (1:256) AUEC” value (coagulation; dabigatran alone) of the same molecule?
Answer: Its value is 1404.8 (184.7) s∙h.

Question: And the “dPT (1:256) Rmax” value (coagulation; dabigatran alone)?
Answer: The value was 87.5 (19.2) s.

Question: What about the “Fibrinogen AUEC” value (coagulation; dabigatran with simvastatin) of the same molecule?
Answer: The value was 6040.9 (758.3) h∙mg/dL.

Question: And the “Fibrinogen Rmax” value (coagulation; dabigatran with simvastatin)?
Answer: The value was 309.3 (96.0) mg/dL.

Question: What about the “PT (INR) AUEC” value (coagulation; dabigatran with simvastatin) of the same molecule?
Answer: The value was 27.7 (1.2).

Question: What about the “PT (INR) Rmax” value (coagulation; dabigatran with simvastatin) of the same molecule?
Answer: Its value is 1.4 (0.1).

Question: What about the “PT (sec) AUEC” value (coagulation; dabigatran with simvastatin) of the same molecule?
Answer: The value was 353.8 (12.3) s∙h.

Question: And the “PT (sec) Rmax” value (coagulation; dabigatran with simvastatin)?
Answer: The value was 17.2 (1.4) s.

Question: What about the “TT AUEC” value (coagulation; dabigatran with simvastatin) of the same molecule?
Answer: The value was 1976.2 (643.8) s∙h.

Question: And the “TT Rmax” value (coagulation; dabigatran with simvastatin)?
Answer: The value was 180.7 (50.4) s.

Question: And the “aPTT AUEC” value (coagulation; dabigatran with simvastatin)?
Answer: Its value is 1235.7 (131.7) s∙h.

Question: And the “aPTT Rmax” value (coagulation; dabigatran with simvastatin)?
Answer: The value was 71.7 (12.2) s.

Question: What about the “dPT (1:256) AUEC” value (coagulation; dabigatran with simvastatin) of the same molecule?
Answer: Its value is 1482.9 (144.9) s∙h.

Question: What about the “dPT (1:256) Rmax” value (coagulation; dabigatran with simvastatin) of the same molecule?
Answer: The value was 92.5 (15.3) s.

Question: What about the “influence of atorvastatin on pharmacokinetics or pharmacodynamics of dabigatran” value ([1]; healthy volunteers) of the same molecule?
Answer: The value was “No influence”.

Question: And the “fraction excreted via urine” value ([1]; intravenous dabigatran)?
Answer: The value was 85%.

Question: What about the “Thrombin Generation AUC AUEC” value (thrombin generation; dabigatran alone) of the same molecule?
Answer: The value was 84,994.8 (14,977.1) nM∙min∙h.

Question: And the “Thrombin Generation AUC Rmax” value (thrombin generation; dabigatran alone)?
Answer: Its value is 2423.6 (734.9) nM∙min.

Question: What about the “Thrombin Generation Lag time AUEC” value (thrombin generation; dabigatran alone) of the same molecule?
Answer: Its value is 131.7 (20.8) min∙h.

Question: And the “Thrombin Generation Lag time Rmax” value (thrombin generation; dabigatran alone)?
Answer: Its value is 7.8 (1.7) min.

Question: What about the “Thrombin Generation AUC AUEC” value (thrombin generation; dabigatran with simvastatin) of the same molecule?
Answer: Its value is 79,286.4 (10,676.3) nM∙min∙h.

Question: What about the “Thrombin Generation AUC Rmax” value (thrombin generation; dabigatran with simvastatin) of the same molecule?
Answer: The value was 2231.7 (326.0) nM∙min.

Question: And the “Thrombin Generation Lag time AUEC” value (thrombin generation; dabigatran with simvastatin)?
Answer: Its value is 128.5 (20.1) min∙h.

Question: What about the “Thrombin Generation Lag time Rmax” value (thrombin generation; dabigatran with simvastatin) of the same molecule?
Answer: The value was 8.0 (1.5) min.

Question: What about the CL/F ([2]; 150 mg dabigatran etexilate alone, mean (SD)) of the same molecule?
Answer: The CL/F was 362.3 (331.8) L/h.

Question: And the Tmax ([2]; 150 mg dabigatran etexilate alone, median (min–max))?
Answer: Its Tmax is 2 (1–4) h.

Question: And the CL/F ([2]; co-administered with simvastatin 40 mg once daily, day 7, mean (SD))?
Answer: Its CL/F is 275.8 (197.4) L/h.

Question: And the “AUClast with simvastatin as % of value when administered alone” value [2, 3]?
Answer: The value was 121%.

Question: What about the “Cmax with simvastatin as % of value when administered alone” value [2, 3] of the same molecule?
Answer: The value was 124%.

Question: And the “increase of AUClast after simvastatin co-administration” value ([2]; compared to dabigatran administered alone)?
Answer: The value was 21%.

Question: What about the AUC(0-inf) [2, 4] of the same molecule?
Answer: The AUC(0-inf) was 664 ng·h/mL.

Question: What about the AUC(0-t) [2, 4] of the same molecule?
Answer: Its AUC(0-t) is 617 ng·h/mL.

Question: What about the half-life ([2]; human, plasma, oral, 150 mg dabigatran etexilate alone, mean (SD)) of the same molecule?
Answer: The half-life was 6.1 h.

Question: And the Cmax ([2]; human, plasma, oral, 150 mg dabigatran etexilate alone, mean (SD), read-out: Cmax)?
Answer: The Cmax was 87 ng/mL.

Question: And the MRT ([2]; human, plasma, oral, 150 mg dabigatran etexilate alone, mean (SD), read-out: MRT)?
Answer: The MRT was 7.1 h.

Question: With `Cn1c(CNc2ccc(C(=N)N)cc2)nc2cc(C(=O)N(CCC(=O)OC3O[C@H](C(=O)O)[C@@H](O)[C@H](O)[C@H]3O)c3ccccn3)ccc21` (stereo partly shown) [Dabigatran acylglucuronide] as the molecule, how does the AUCinf ([2]; human, in vivo, 150 mg) read?
Answer: Its AUCinf is 1576.5 (1154.0) h∙ng/mL.

Question: And the AUClast ([2]; human, in vivo, 150 mg)?
Answer: The AUClast was 1480.1 (1090.5) h∙ng/mL.

Question: What about the CL/F ([2]; human, in vivo, 150 mg) of the same molecule?
Answer: The CL/F was 176.8 (161.8) L/h.

Question: And the Cmax ([2]; human, in vivo, 150 mg)?
Answer: Its Cmax is 266.8 (187.1) ng/mL.

Question: And the MRT ([2]; human, in vivo, 150 mg)?
Answer: The MRT was 6.8 (0.9) h.

Question: What about the Tmax ([2]; human, in vivo, 150 mg) of the same molecule?
Answer: Its Tmax is 2 (1.5–4) h.

Question: What about the t1/2 ([2]; human, in vivo, 150 mg) of the same molecule?
Answer: Its t1/2 is 6.4 (1.9) h.
